Data taken from patent US20060004088A1, “Furan derivatives for preventing and curing osteoporosis and pharmaceutical compositions containing the same” (OCT INC., priority 2002, published 2006).

Tests used:
[1] = test system: osteoclast pregenitor cells; assay: Inhibition rates of furan derivatives versus osteoclast formation (TRAP staining); assay type: cell-based, mice; conditions: TRAP-positive multinucleated cells, untreated control set as 100%
Procedure, shortened: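 Non-adherent mouse bone-marrow osteoclast precursors cultured 8 days with 20 ng/ml M-CSF and 30 ng/ml RANKL in presence of compound. TRAP-positive cells with ≥3 nuclei counted; inhibition expressed relative to untreated control set at 100%.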

[2] = test system: osteoclast progenitor cells; assay: Formation of TRAP-positive multinucleated cells from osteoclast progenitors; assay type: cell-based, mice; conditions: for No. of TRAP(+) multinucleated cells: M-CSF + RANKL, untreated control 132.80 ± 10.50; for number of TRAP-positive multinucleated cells in treated cultures: text summary, concentration not stated, control 132
Experimental: First, bone marrow cells were isolated, as follow. After sacrificing 7-9 week female mice by cervical dislocation, femur and tibia were excised aseptically while removing attached soft tissues. After cutting both ends of long bones, 1 ml of an enzyme solution, containing 0.1% collagenase (Gibco), 0.05% trypsin and 0.5 mM EDTA (Gibco), was injected to the bone marrow cavity at one end using a syringe with a 26-guage needle, and bone marrow was then collected. After shaking the recovered bone marrow for 30 min, bone marrow cells were collected, and cultured in α-minimum essential medium (α-MEM) supplemented with 10% FBS for 24 hrs. Then, non-adherent cells were collected, which are osteoclast pregenitors, aliquotted onto culture plates at a density of 2×10^5 cells per well, and cultured for 8 days in α-MEM supplemented with 20 ng/ml of macrophage-colony stimulating factor (M-CSF, Peprotech, USA) and 30 ng/ml RANKL (Peprotech, USA). During the 8 days of culturing, the cells were treated with the Compound 1. Thereafter, osteoclast formation was investigated by fixing the cultured cells and then carrying out TRAP staining, as described in the following Experimental Example 2.2. In addition, resorption activity of osteoclasts was investigated by measuring the absorption area after removing osteoclasts in cultures in calcium phosphate-coated plates, as described in Experimental Example 2.3, below.
After cell culture, the adherent cells were washed with PBS, and TRAP staining was performed, as follows. After being fixed with citrate-acetate-formaldehyde for 5 min, the cells were incubated for 1 hr in acetate buffer (prewarmed at 37° C., pH 5.0) containing naphthol AS-BI phosphate, fast Garnet GBC and 7 mM tartrate buffer (pH 5.0). TRAP-positive multinucleated cells having 3 or more nuclei were considered as osteoclasts.

[3] = test system: ovariectomized female white mice with onset of osteoporosis; assay: Therapeutic effect on osteoporosis, bone mineral densitometer; assay type: in vivo
Experimental: After ovariectomy, female white mice weighing about 250 g were bred for four weeks. After checking the onset of osteoporosis in the mice, each of the mice was orally administered with 220 μl of the Compound 1 dissolved in 30 ml water for four weeks.
BMD measurement was performed before ovariectomy and every week for eight weeks after ovariectomy, using a bone mineral densitometer, XCT 540 Research SA made in Germany.
After anesthetizing the mice being bred in cages by intraperitoneal injection of a mixture of Ketamine HCl (ketara 10 mg/kg) and 2% xylazine HCl (Roupun 0.15 ml/kg), BMD measurement was made at a voxel size of 0.1×0,1 mm^2 and threshold values of 280 mg/cm^2 for cancellous bone and 500 mg/cm^2 for compact bone. The analysis sites at the proximal tibias were determined by Scout scans (10 mm/sec), and BMD was measured at three slices at the determined sites by CT scans (7 mm/sec). BMD measurement was performed twice or more at the same site every week during eight weeks after ovariectomy.

In the case of `O=Cc1ccc(CO)o1` [Compound 1, 5-hydroxymethylfuran-2-carboxyaldehyde], the “Inhibition rate against osteoclast formation, %” value (“Inhibition rate … %” for short) ([1]; 0.1 μM) is reported as 0%, the “Inhibition rate … %” value ([1]; 1 μM) is reported as 0% and the “Inhibition rate … %” value ([1]; 10 μM) is reported as 30%. The “No. of TRAP(+) multinucleated cells” value ([2]; 10^−4 M Compound 1, 8 days) was 77.20 ± 6.73, the “No. of TRAP(+) multinucleated cells” value ([2]; 10^−5 M Compound 1, 8 days) was 108.20 ± 4.57 and the “No. of TRAP(+) multinucleated cells” value ([2]; 10^−6 M Compound 1, 8 days) was 103.60 ± 6.95. For the same compound, the “No. of TRAP(+) multinucleated cells” value ([2]; 10^−7 M Compound 1, 8 days) was 120.00 ± 6.42, the “No. of TRAP(+) multinucleated cells” value ([2]; 10^−8 M Compound 1, 8 days) was 105.20 ± 8.58 and the “number of TRAP-positive multinucleated cells in treated cultures” value [2] was 77. The “number of TRAP-positive multinucleated cells in treated cultures” value ([2]; listed as Example 1) was “remarkably reduced”, the “decrease of BMD compared to that before the ovariectomy” value ([3]; control about 22%) was “about 15%” and the “reduction of BMD compared to a control (in words)” value ([3]; oral 220 μl/day for four weeks after four weeks of osteoporosis development) was “very slight reduction of BMD”. The “Change in BMD, %” value ([3]; week 1 after ovariectomy (administration begins after week 4), control −3) was −2.9%, the “Change in BMD, %” value ([3]; week 2 after ovariectomy (administration begins after week 4), control −10) was −10.5% and the “Change in BMD, %” value ([3]; week 3 after ovariectomy (administration begins after week 4), control −15) was −14%. For the same compound, the “Change in BMD, %” value ([3]; week 4 after ovariectomy (administration begins after week 4), control −19) was −17%, the “Change in BMD, %” value ([3]; week 5 after ovariectomy, oral 220 μl in 30 ml water from week 4, control −21.8) was −16.5% and the “Change in BMD, %” value ([3]; week 7 after ovariectomy, oral 220 μl in 30 ml water from week 4, control −25.9) was −19%. For the same compound, the “Change in BMD, %” value ([3]; week 8 after ovariectomy, oral 220 μl in 30 ml water from week 4, control −32) was −21.4%.
